Consider nine molecules from US20200055948A1, “CELLS EXPRESSING A BCMA-TARGETING CHIMERIC ANTIGEN RECEPTOR, AND COMBINATION THERAPY WITH A GAMMA SECRETASE INHIBITOR” (Novartis AG, priority 2017, published 2020).

One assay concerns shed/soluble BCMA. In words: GSI inhibition of shed/soluble BCMA (sBCMA), ELISA of supernatants after 72 hours, NCI-H929, MM1S, U266B1 (Example 2, Table 30, FIG. 3). Particulars: for EC50: Homo sapiens, 72 hours, ELISA of supernatants; for efficacious concentrations, rank among the panel of GSIs: inhibition of BCMA shedding and enhancement of membrane BCMA, Table 30. It counts as cell-based, human. On the procedure: (§1) FIG. 3 is a panel of graphs comparing soluble/shed BCMA (sBCMA) levels to membrane-bound BCMA (mBCMA) levels in MM1S cell cultures treated with various gamma secretase inhibitors for 72 hours.
(§2) Target human cancer cell lines expressing various levels of human BCMA (NCI-H929^[High], MM1S^[med], U266B1^[low]) were all transduced to constitutively express luciferase, which is used to measure cell viability/survival with the BrightGlo reagent (Promega E2650). Target cells were plated 30,000 cells per well in a 96 well plate (Costar 3904) together with serial dilutions of a panel of gamma secretase inhibitors (Table 29). The plate was incubated at 37° C./5% CO2 for 72 hours, followed by measurements of cell viability (BrightGlo, Promega # E2650) according to vendor protocol. In a replicate set of assay plates, cell culture supernatants were collected by centrifugation and quantified for levels of soluble BCMA by ELISA (R&D Systems, DY193), and the remaining cells were stained with a PE conjugated BCMA antibody (clone 19F2, Biolegend 357504) and analyzed by flow cytometry for BCMA cell surface expression levels.
(§3) Raw OD450 values from the BCMA ELISA were plotted together with the mean fluorescent intensity values from flow cytometry analysis of cells stained with anti-BCMA antibody, and are shown for MM1S cells treated with the various GSIs in FIG. 3. Table 30 summarizes the EC50 results of all the GSIs on the three BCMA-expressing cell lines.
A general note: ELISA stands for enzyme-linked immunosorbent assay.

The next assay deals with membrane BCMA expression. The assay is described as follows: GSI enhancement of membrane BCMA (mBCMA) expression, flow cytometry after 72 hours, NCI-H929, MM1S, U266B1 (Example 2, Table 30, FIG. 3). Type of assay: cell-based. Particulars: Homo sapiens. On the procedure:
as §1, §2, §3
(In general: In flow cytometry, cells or beads pass a laser one at a time.)

The subject of assay [1] is BCMA cell surface expression. The assay is described as follows: BCMA cell surface expression by flow cytometry with PE conjugated BCMA antibody, with or without GSI (Example 1, FIG. 1). Particulars: BCMA-expressing multiple myeloma cell lines. It counts as cell-based, human. As to the method: FIG. 1 is a set of histogram plots showing the staining of BCMA-expressing human cancer cell lines, NCI-H929, MM1S, and U266B1, using a PE conjugated anti-BCMA antibody. The cell lines were untreated, or treated with 1.0 μM DAPT or 0.1 μM LY-411,575 before subjected to a flow cytometry analysis.
Human cancer cell lines expressing various levels of human BCMA (NCI-H929^[High] MM1S^[Med], and U266B1^[low]) were all transduced to constitutively express luciferase, which is used to measure cell viability/survival with the BrightGlo reagent (Promega # E2650).
BCMA expressing cell lines were treated overnight with and without GSIs. Cell culture supernatants were collected and quantified for levels of soluble BCMA by ELISA (R&D Systems, # DY193). Additionally, remaining cells were pelleted, stained with a PE conjugated BCMA antibody (clone 19F2, Biolegend #357504) and analyzed by flow cytometry for BCMA cell surface expression levels.
BCMA cell surface expression level was determined by flow cytometry on cell lines with or without GSI treatment.

In a further assay the test system is soluble BCMA. The assay is described as follows: Soluble BCMA in supernatants of MM cell lines U266 or RPMI 8226 by sandwich ELISA after 48 hrs GSI (Example 3, FIGS. 5A and 5B). Particulars: RPMI 8226 cells treated, 6 μM-100 μM. Type of assay: cell-based, human. On the procedure:
FIGS. 5A and 5B are a pair of graphs showing that a gamma secretase inhibitor reduces soluble BCMA released by MM cell lines. In FIGS. 5A and 5B, the amount of soluble BCMA (pg/ml) as measured by ELISA is plotted for each GSI concentration tested.
MM cell lines U266 or RPMI 8226 were incubated with several concentrations (6 μM-100 μM) of Ly 411575 gamma secretase inhibitor (Miltenyi) for 48 hrs. Supernatants were collected and secreted BCMA was measured using a sandwich ELISA (BCMA/TNFRSF17 ELISA Duo set, R&D Systems).

On to `C[C@H](c1ccc(F)cc1CCCC(=O)O)N(c1cc(F)ccc1F)S(=O)(=O)c1ccc(Cl)cc1` [BMS-299897], for which the EC50 in the assay on shed/soluble BCMA (MM1.S, MM1S cells) was 800 nM; in the assay on shed/soluble BCMA (NCI-H929, H929 cells), 528 nM; with membrane BCMA expression (MM1.S, MM1S cells) it was 485 nM; in the assay on membrane BCMA expression (NCI-H929, H929 cells), 152 nM; in the assay on membrane BCMA expression (U266B1 cells), 1690 nM. For the same molecule, the “efficacious concentrations, rank among the panel of GSIs” value in the assay with shed/soluble BCMA was “least”.
As to `O=S(=O)(N[C@@H](CO)C(C(F)(F)F)C(F)(F)F)c1ccc(Cl)s1` [PF-5212362, (R)-5-chloro-N-(4,4,4-trifluoro-1-hydroxy-3-(trifluoromethyl)butan-2-yl)thiophene-2-sulfonamide], the EC50 with shed/soluble BCMA (MM1.S, MM1S cells) turned out to be 121 nM; in the assay on shed/soluble BCMA (NCI-H929, H929 cells), 137 nM; in the assay with shed/soluble BCMA (U266B1 cells) it was 583 nM; with membrane BCMA expression (MM1.S, MM1S cells) it was 52.2 nM; in the assay with membrane BCMA expression (NCI-H929, H929 cells) it was 13.8 nM; with membrane BCMA expression (U266B1 cells), 560 nM.
With `NC(=O)[C@@H](CCC(F)(F)F)N(Cc1ccc(-c2ncon2)cc1F)S(=O)(=O)c1ccc(Cl)cc1` [BMS-708163, (R)-2-((4-chloro-N-(2-fluoro-4-(1,2,4-oxadiazol-3-yl)benzyl)phenyl)sulfonamido)-5,5,5-trifluoropentanamide], the EC50 came to 13.3 nM with shed/soluble BCMA (MM1.S, MM1S cells); 2.5 nM in the assay on shed/soluble BCMA (NCI-H929, H929 cells); 29.8 nM with shed/soluble BCMA (U266B1 cells); 7.4 nM with membrane BCMA expression (MM1.S, MM1S cells); 3.6 nM in the assay with membrane BCMA expression (NCI-H929, H929 cells); 32.4 nM with membrane BCMA expression (U266B1 cells).
For `CC(C)[C@H](O)C(=O)N[C@@H](C)C(=O)N[C@@H]1C(=O)N(C)CCc2ccccc21` [LY-450139, (S)-2-hydroxy-3-methyl-N—((S)-1-(((S)-3-methyl-2-oxo-2,3,4,5-tetrahydro-1H-benzo[d]azepin-1-yl)amino)-1-oxopropan-2-yl)butanamide], the EC50 with shed/soluble BCMA (MM1.S, MM1S cells) was determined as 65 nM; with shed/soluble BCMA (NCI-H929, H929 cells) it was 99.9 nM; with shed/soluble BCMA (U266B1 cells) it was 236 nM; in the assay with membrane BCMA expression (MM1.S, MM1S cells), 40.7 nM; in the assay on membrane BCMA expression (NCI-H929, H929 cells), 54.8 nM; in the assay on membrane BCMA expression (U266B1 cells), 190 nM.
`C[C@H](NC(=O)Cc1cc(F)cc(F)c1)C(=O)N[C@H](C(=O)OC(C)(C)C)c1ccccc1` [DAPT]: the “cell surface expression of BCMA (in words)” value in assay [1] was “strongly enhances”. In addition, the EC50 in the assay on shed/soluble BCMA (MM1.S, MM1S cells) turned out to be 144 nM; with shed/soluble BCMA (NCI-H929, H929 cells), 220 nM; in the assay with shed/soluble BCMA (U266B1 cells), 459 nM; in the assay on membrane BCMA expression (MM1.S, MM1S cells) it was 97.4 nM; in the assay on membrane BCMA expression (NCI-H929, H929 cells), 145 nM; in the assay with membrane BCMA expression (U266B1 cells), 401 nM.
As for `CC(C)(C(=O)NCC(F)(F)C(F)(F)F)C(=O)N[C@@H]1C(=O)Nc2ccccc2-c2ccccc21` [RO4929097], the EC50 in the assay with shed/soluble BCMA (MM1.S, MM1S cells) amounted to 4.6 nM; in the assay on shed/soluble BCMA (NCI-H929, H929 cells), 3 nM; in the assay with shed/soluble BCMA (U266B1 cells), 6.2 nM; with membrane BCMA expression (MM1.S, MM1S cells), 3.2 nM; in the assay on membrane BCMA expression (NCI-H929, H929 cells), 4.4 nM; in the assay with membrane BCMA expression (U266B1 cells), 10.1 nM.
On to `CCC[C@H](N[C@H]1CCc2cc(F)cc(F)c2C1)C(=O)Nc1cn(C(C)(C)CNCC(C)(C)C)cn1` [PF-3084014, (S)-2-(((S)-6,8-difluoro-1,2,3,4-tetrahydronaphthalen-2-yl)amino)-N-(1-(2-methyl-1-(neopentylamino)propan-2-yl)-1H-imidazol-4-yl)pentanamide], for which the EC50 in the assay with shed/soluble BCMA (MM1.S, MM1S cells) was found to be 32.2 nM; in the assay on shed/soluble BCMA (NCI-H929, H929 cells), 34.8 nM; in the assay with shed/soluble BCMA (U266B1 cells), 67.2 nM; in the assay on membrane BCMA expression (MM1.S, MM1S cells), 36.6 nM; with membrane BCMA expression (NCI-H929, H929 cells), 31.6 nM; in the assay with membrane BCMA expression (U266B1 cells), 70.4 nM.
Regarding `C[C@H](NC(=O)[C@@H](O)c1cc(F)cc(F)c1)C(=O)N[C@@H]1C(=O)N(C)c2ccccc2-c2ccccc21` [LY-411575, (S)-2-((S)-2-(3,5-difluorophenyl)-2-hydroxyacetamido)-N—((S)-5-methyl-6-oxo-6,7-dihydro-5H-dibenzo[b,c]azepin-7-yl)propanamide], the “cell surface expression of BCMA (in words)” value in assay [1] is on record as “strongly enhances”. For the same molecule, the EC50 in the assay with shed/soluble BCMA (MM1.S, MM1S cells) was 0.1 nM; with shed/soluble BCMA (NCI-H929, H929 cells), 0.2 nM; in the assay with shed/soluble BCMA (U266B1 cells) it was 0.1 nM; in the assay on membrane BCMA expression (NCI-H929, H929 cells), 0.1 nM; in the assay on membrane BCMA expression (U266B1 cells) it was 0.1 nM. Moreover, in the assay with shed/soluble BCMA, the “efficacious concentrations, rank among the panel of GSIs” value is reported as “most potent”. In addition, in the assay on soluble BCMA, the “secreted BCMA” value came out at 200 pg/mL.
With `O=C(O)CC[C@H]1CC[C@@](c2cc(F)ccc2F)(S(=O)(=O)c2ccc(Cl)cc2)CC1` [MK-0752, 3-((1S,4R)-4-((4-chlorophenyl)sulfonyl)-4-(2,5-difluorophenyl)cyclohexyl)propanoic acid], the EC50 stood at 566 nM in the assay with shed/soluble BCMA (MM1.S, MM1S cells); 269 nM in the assay on shed/soluble BCMA (NCI-H929, H929 cells); 1060 nM in the assay with shed/soluble BCMA (U266B1 cells); 332 nM in the assay with membrane BCMA expression (MM1.S, MM1S cells); 69.3 nM in the assay on membrane BCMA expression (NCI-H929, H929 cells); 1210 nM with membrane BCMA expression (U266B1 cells).

By EC50 is commonly meant the concentration needed to bring the measured effect to its halfway point.
